This passage reports IC50 and ED50 results from patent US5240941A, “Thioxo quinoline compounds, composition and method of use” (ICI Pharma, priority 1990, dated 1993).

Each structure is given as a SMILES string.

The subject of experiment [1] is 5-LO. Put plainly: Test b) heparinised human blood, A23187 challenge, LTB4 radioimmunoassay. Type of experiment: cell-based. On the procedure:
b) An in vitro assay system involving incubating a test compound with heparinised human blood, prior to challenge with the calcium ionophore A23187 and then indirectly measuring the inhibitory effects on 5-LO by assaying the amount of LTB4 using specific radioimmunoassays described by Carey and Forder (F. Carey and R. A. Forder, Prostaglandins Leukotrienes Med., 1986, 22, 57; Prostaglandins,1984, 28, 666; Brit. J. Pharmacol. 1985, 84, 34P) which involve the use of a protein-LTB4 conjugate produced using the procedure of Young et alia (Prostaglandins, 1983, 26(4), 605-613). The effects of a test compound on the enzyme cyclooxygenase (which is involved in the alternative metabolic pathway for arachidonic acid and gives rise to prostaglandins, thromboxanes and related metabolites) may be measured at the same time using the specific radioimmunoassay for thromboxane B2 (TxB2) described by Carey and Forder (see above). This test provides an indication of the effects of a test compound against 5-LO and also cyclooxygenase in the presence of blood cells and proteins. It permits the selectivity of the inhibitory effect on 5-LO or cyclooxygenase to be assessed.

Experiment [2] relates to 5-LO. As to the kind of experiment: Test g) zymosan-induced LTB4 liberation in air pouch of male rats. It counts as in vivo. The note with it: 3 h; test g), rat air pouch, oral. As for the experimental part: g) An in vivo system involving measuring the effects of a test compound administered orally against the liberation of LTB4 induced by zymosan within an air pouch generated within the subcutaneous tissue of the back of male rats. The rats are anaesthetised and air pouches are formed by the injection of sterile air (20 ml). A further injection of air (10 ml) is similarly given after 3 days. At 6 days after the initial air injection the test compound is administered (usually orally as the suspension produced when a solution of the test compound in dimethylsulphoxide is added to hydroxypropylmethylcellulose), followed by the intrapouch injection of zymosan (1 ml of a 1% suspension in physiological saline). After 3 hours the rats are killed, the air pouches are lavaged with physiological saline, and the specific radioimmunoassay described above is used to assay LTB4 in the washings. This test provides an indication of inhibitory effects against 5-LO in an inflammatory milieu.

Turning to `COC1(c2cc(F)cc(OCc3ccc4c(c3)CCC(=S)N4C)c2)CCOCC1` [4-[5-fluoro-3-(1-methyl-2-thioxo-1,2,3,4-tetrahydroquinolin-6-ylmethoxy)phenyl]-4-methoxytetrahydropyran], the IC50 in the experiment on 5-LO [1] was 0.1 µM. The 50% effective dose (ED50) in the experiment with 5-LO [2] stood at 1.5 mg/kg.
In the same order, the values of `COC1(c2cc(F)cc(Sc3ccc4c(c3)CCC(=S)N4C)c2)CCOCC1` [4-[5-fluoro-3-(1-methyl-2-thioxo-1,2,3,4-tetrahydroquinolin-6-ylthio)phenyl]-4-methoxytetrahydropyran] are 0.05 µM and 0.5 mg/kg.
